{"source": "patent US6677358B1", "about": "“NIDDM regimen” (Novo Nordisk A/S, priority 1997, dated 2004)", "key": {"[1]": {"tested_on": "NIDDM patients inadequately controlled on metformin alone", "details": "for Change in FPG / Change in HbA1c (%) / Change in C peptide / Change in fasting insulin (mU/l): mean ± SEM; for Change in FPG / Change in HbA1c (%): baseline to end of 3-month maintenance period; for Change in C peptide / Change in fasting insulin (mU/l): baseline to end of maintenance treatment period"}, "[2]": {"tested_on": "patients with type 2 diabetes", "assay": "Flexible meal-related dosing study of repaglinide (mixed vs fixed regimen), open-label parallel group", "assay_type": "in vivo, human", "details": "for Mean fructosamine: 1 mg preprandially, end of 21 days", "procedure": "In a single-centre, randomised, open-label, parallel group comparison study it was investigated whether repaglinide given preprandially will maintain glycaemic control in patients who skip a meal (lunch) or have an extra meal (bedtime snack) [mixed regimen] as compared with those who have three regular meals [fixed regimen].\nA total of 25 diet-treated patients with type 2 diabetes were enrolled (18 men and 7 women) and given a fixed 1 mg dose of repaglinide preprandially (therapeutic dose range: 0.5-4 mg). After one week of stabilisation patients were randomised to the mixed or fixed regimen for a period of 21 days if blood glucose was >140 mg/dl."}, "[3]": {"assay": "Half-life (duration of action) of repaglinide", "details": "in vivo"}, "[4]": {"tested_on": "NIDDM patients", "assay": "Repaglinide 3 times daily before meals (REP3) vs twice daily (REP2), 4-week double-blind study", "details": "for Fasting blood glucose (mean ±SEM) after 4 weeks: doubled after 2 weeks", "method": "The potential impact of tailoring insulin release to meal in-take was investigated in a study comparing 3 times daily dosing with repaglinide just before meals to the same dosage administered twice daily. Eighteen OHA-naive NIDDM patients entered a 4-week, single centre, double-blind study, and were randomised to either 0.25 mg repaglinide before breakfast, lunch and dinner (REP3), or 0.5 mg before breakfast, placebo at lunch, and 0.25 mg before dinner (REP2). After two weeks the doses were doubled.\nAfter 2 weeks, the doses were doubled to 0.5 mg before each meal (REP3) and 1 mg+0.5 mg (REP2)."}}, "note": "Several values for one entry are separate records, joined by “and”; a condition that tells them apart may be missing. Equal values may be shown once. Read-outs that look alike come from different tables or passages of the source."}
{"compound": "CN(C)C(=N)N=C(N)N", "note": "[Metformin, metformin]", "values": [{"measurement": "Change in mean body weight during the study", "setting": "[1]; in vivo", "result": "-0.86 ± 0.51", "unit": "kg"}, {"measurement": "Frequency of drug-related adverse events", "setting": "[1]; in vivo", "result": 14.8, "unit": "%"}, {"measurement": "Gastrointestinal side effects", "setting": "[1]; in vivo", "result": 7.4, "unit": "%"}, {"measurement": "Patients reporting hypoglycemic episodes (number)", "setting": "[1]; in vivo", "result": "none"}, {"measurement": "Change in FPG", "setting": "[1]", "result": -0.25, "unit": "mmol/L"}, {"measurement": "Change in HbA1c (%)", "setting": "[1]", "result": "−0.33", "unit": "%"}, {"measurement": "Change in FPG", "setting": "[1]; listed as MET", "result": -0.25, "unit": "mmol/L"}, {"measurement": "Change in HbA1c (%)", "setting": "[1]; listed as MET", "result": "−0.33", "unit": "%"}, {"measurement": "Change in C peptide", "setting": "[1]", "result": 0.02, "unit": "nmol/L"}, {"measurement": "Change in fasting insulin (mU/l)", "setting": "[1]", "result": "1.05 ± 1.60", "unit": "mU/l"}]}
{"compound": "CCOc1cc(CC(=O)N[C@@H](CC(C)C)c2ccccc2N2CCCCC2)ccc1C(=O)O", "note": "[Repaglinide, (S)-(+)-2-ethoxy-4-[2-[[3-methyl-1-[2-(1-piperidinyl)phenyl]butyl]amino]-2-oxo-ethyl]benzoic acid]", "values": [{"measurement": "Blood glucose AUC over 24 hours, difference between fixed and mixed groups", "setting": "[2]; 37-point blood glucose profile", "result": "not statistically significant"}, {"measurement": "Hypoglycaemic episodes or serious adverse events", "setting": "[2]; both regimens", "result": "no hypoglycaemic episodes or serious adverse events were reported"}, {"measurement": "Mean fructosamine", "setting": "[2]; fixed regimen (three regular meals), decreased from 3.10, p<0.05", "result": 2.68, "unit": "mmol/L"}, {"measurement": "Tolerability of dose regimens", "setting": "[2]; in vivo", "result": "well tolerated"}, {"measurement": "Blood glucose levels when lunch was omitted", "setting": "[2]; mixed regimen", "result": "remained stable until next meal"}, {"measurement": "Mean fructosamine", "setting": "[2]; mixed regimen (skipped lunch or extra bedtime snack), decreased from 3.37, p<0.05", "result": 2.85, "unit": "mmol/L"}, {"measurement": "Mean fasting blood glucose (FBG)", "setting": "[2]; value decreased to, both groups (fixed and mixed regimen)", "result": "approximately 120 mg/dl"}, {"measurement": "T½ (short duration of action)", "setting": "[3]", "result": "one"}, {"measurement": "Frequency of drug-related adverse events", "setting": "[1]; human, in vivo", "result": 25.0, "unit": "%"}, {"measurement": "Gastrointestinal side effects", "setting": "[1]; human, in vivo", "result": 3.6, "unit": "%"}, {"measurement": "Patients reporting hypoglycemic episodes (%)", "setting": "[1]; human, in vivo", "result": 17.9, "unit": "%"}, {"measurement": "Patients reporting hypoglycemic episodes (number)", "setting": "[1]; human, in vivo", "result": 3, "unit": "patients"}, {"measurement": "Change in mean body weight during the study", "setting": "[1]; in vivo", "result": "+2.98±0.49 kg"}, {"measurement": "Change in FPG", "setting": "[1]", "result": 0.49, "unit": "mmol/L"}, {"measurement": "Change in HbA1c (%)", "setting": "[1]", "result": "−0.38", "unit": "%"}, {"measurement": "Change in FPG", "setting": "[1]; listed as REP", "result": 0.49, "unit": "mmol/L"}, {"measurement": "Change in HbA1c (%)", "setting": "[1]; listed as REP", "result": "−0.38", "unit": "%"}, {"measurement": "Change in C peptide", "setting": "[1]", "result": 0.18, "unit": "nmol/L"}, {"measurement": "Change in fasting insulin (mU/l)", "setting": "[1]", "result": "4.04 ± 1.56", "unit": "mU/l"}, {"measurement": "Blood glucose (AUC0-24 h) after 4 weeks", "setting": "[4]; REP2 (twice daily)", "result": 8.91, "unit": "mmol/L"}, {"measurement": "Increase in normed AUC0-24 h for plasma insulin", "setting": "[4]; REP2, after 4 weeks", "result": 20, "unit": "%"}, {"measurement": "Fasting blood glucose (mean ±SEM) after 4 weeks", "setting": "[4]; REP2: 0.5 mg before breakfast + 0.25 mg before dinner, baseline 11.3±0.73, 11.2", "result": "9.6 mmol/L and 9.6 ± 0.7 mmol/L"}, {"measurement": "HbA1c (±SEM) after 4 weeks", "setting": "[4]; REP2, baseline 7.12±0.24, decrease non-significant", "result": "6.8% and 6.84±0.34%"}, {"measurement": "Blood glucose (AUC0-24 h) after 4 weeks", "setting": "[4]; REP3 (three times daily before meals), P<0.05 vs REP2", "result": 7.00, "unit": "mmol/L"}, {"measurement": "Increase in normed AUC0-24 h for plasma insulin", "setting": "[4]; REP3, after 4 weeks", "result": "35-40%"}, {"measurement": "Fasting blood glucose (mean ±SEM) after 4 weeks", "setting": "[4]; REP3: 0.25 mg, before each of three main meals, baseline 11.1±1.24, 11.2", "result": "8.4 mmol/L and 8.4 ± 1.01 mmol/L"}, {"measurement": "HbA1c (±SEM) after 4 weeks", "setting": "[4]; REP3, baseline 7.51±0.78, P=0.004", "result": "6.5% and 6.51±0.64%"}, {"measurement": "Postprandial blood glucose, lower with REP3 than with REP2", "setting": "[4]; after 4 weeks, P<0.05", "result": "about 2.5 mmol/l"}, {"measurement": "Normed AUC0-24 h for plasma C-peptide", "setting": "[4]; both groups (REP2, REP3), after 4 weeks", "result": "increased in both groups"}, {"measurement": "Plasma insulin before the next meal", "setting": "[4]; both treatment groups", "result": "decreased to pre-treatment levels"}, {"measurement": "Plasma insulin during the night in comparison with pre-treatment levels", "setting": "[4]; both treatment groups", "result": "no increase"}, {"measurement": "Non-serious adverse events", "setting": "[4]; either treatment group", "result": "mild hypoglycemic episodes and one case of influenza"}, {"measurement": "Serious adverse events", "setting": "[4]; either treatment group", "result": "No serious adverse events"}]}
